Assay results reported in paper PMC7004565, “Nucleotide inhibition of the pancreatic ATP-sensitive K^+ channel explored with patch-clamp fluorometry” (eLife, 2020).
“And” between values parts separate entries of the source, which are not always exact repeats. Equal values may be shown once. Read-outs that look alike come from different tables or passages of the source.

Target: Kir6.2-GFP + SUR1 (Homo sapiens, UniProt Q14654)
Experiment: Bayesian MWC-type model fits to combined patch-clamp fluorometry data
Assay type: biochemical
Design: full length, fully ANAP-labelled Kir6.2 protein was produced and successfully trafficked to the membrane in the presence of SUR1; expressed in transfected cells; host or cells: HEK-293T
Text: Our simultaneous binding and current measurements were well fit with a Monod-Wyman-Changeux (MWC)-type model (Figure 2D,E; [Monod et al., 1965]) which has been previously proposed to explain KATP channel inhibition ([Enkvetchakul and Nichols, 2003]; [Craig et al., 2008]; [Vedovato et al., 2015]). In our MWC-type model, each ligand binding event ( KA ) is independent and each bound ligand favours the closed state by the same factor ( D ). Simultaneous measurement of binding (fluorescence) and gating (current) allowed us to obtain well constrained fits to our model. To obtain free parameter ( L , KA , D ) estimates and verify that each parameter was well and uniquely determined, we employed a Bayesian Markov chain Monte Carlo (MCMC) method previously employed by [Hines et al. (2014)]. Using this approach, we constructed posterior probability distributions for the free parameters of our MWC-type model (Figure 2F, Table 3). […] Our estimate of L was quite low and broadly distributed. We repeated our fits with L fixed to a value consistent with previous single channel measurements (0.8, Popen=0.45; [John et al., 1998]; [Enkvetchakul et al., 2000]; [Ribalet et al., 2006]). This had only a very small effect on our estimates of D and KA (Figure 2—figure supplement 1). The broad distribution of L in our fit may represent current rundown which occurs during our patch-clamp recordings and is expected to affect the open-closed equilibrium.
In addition to the full MWC-type model we considered alternate models (Figure 2—figure supplement 2). These included a model in which only the first binding event influences the open-closed equilibrium of the channel (single-binding model; Figure 2—figure supplement 2B, Table 3), and an MWC-style model with an additional parameter C to allow for direct negative cooperativity between binding sites (negative cooperativity model; Figure 2—figure supplement 2C, Table 3). The single-binding model yielded very similar parameter estimates to our full MWC-type model (Figure 2—figure supplement 2D, Table 3). This is a consequence of D being so low that even in the MWC-type model most channels are closed when only a single nucleotide is bound. The cooperative model improved our fits, but not enough to justify the inclusion of an additional free parameter (see Discussion).
The MWC-type models considered (Figure 2 and Figure 2—figure supplement 2) were formulated as follows:(3) F/Fmax=KA[TNPATP](1+KA[TNPATP])^3+LDKA[TNPATP](1+DKA[TNPATP])^3/(1+KA[TNPATP])^4+L(1+DKA[TNPATP])^4 (4) open channels/total channels=L(1+DKA[TNPATP])^4/(1+KA[TNPATP])^4+L(1+DKA[TNPATP])^4
The first was similar to the MWC-type model, except that the channels close after one molecule of TNP-ATP binding with subsequent binding events having no effect.(7) F/Fmax=LDKA[TNPATP](1+3KA[TNPATP]+3KA2[TNPATP]^2+KA3[TNPATP]^3)+KA[TNPATP](1+KA[TNPATP])^3/L(1+4DKA[TNPATP]+6DKA2[TNPATP]^2+4DKA3[TNPATP]^3+DKA4[TNPATP]^4)+(1+KA[TNPATP])^4 (8) I/Imax=L(1+4DKA[TNPATP]+6DKA2[TNPATP]^2+4DKA3[TNPATP]^3+DKA4[TNPATP]^4)/L(1+4DKA[TNPATP]+6DKA2[TNPATP]^2+4DKA3[TNPATP]^3+DKA4[TNPATP]^4)+(1+KA[TNPATP])^4⋅1+L/L
The second alternate model was the same as the full MWC model, but with an additional term C describing binding cooperativity between Kir6.2 subunits.(9) F/Fmax=LDKA[TNPATP](1+3CDKA[TNPATP]+3C^2D^2KA2[TNPATP]^2+C^3D^3KA3[TNPATP]^3)+KA[TNPATP](1+3CKA[TNPATP])+3C^2KA2[TNPATP]^2+C^3KA3[TNPATP]^3)/L(1+4DKA[TNPATP]+6CD^2KA2[TNPATP]^2+4C^2D^3KA3[TNPATP]^3+C^3D^4KA4[TNPATP]^4)+1+4KA[TNPATP]+6CKA2[TNPATP]^2+4C^2KA3[TNPATP]^3+C^3KA4[TNPATP]^4 (10) I/Imax=L(1+4DKA[TNPATP]+6CD^2KA2[TNPATP]^2+4C^2D^3KA3[TNPATP]^3+C^3D^4KA4[TNPATP]^4)/L(1+4DKA[TNPATP]+6CD^2KA2[TNPATP]^2+4C^2D^3KA3[TNPATP]^3+C^3D^4KA4[TNPATP]^4)+1+4KA[TNPATP]+6C^2KA2[TNPATP]^2+4C^2KA3[TNPATP]^3+C^3KA4[TNPATP]^4⋅1+L/L […]

[1] = Full MWC model, median estimate
[2] = Single-site (single-binding) model

Chain of Kir6.2-GFP + SUR1 (Q14654 whole entry): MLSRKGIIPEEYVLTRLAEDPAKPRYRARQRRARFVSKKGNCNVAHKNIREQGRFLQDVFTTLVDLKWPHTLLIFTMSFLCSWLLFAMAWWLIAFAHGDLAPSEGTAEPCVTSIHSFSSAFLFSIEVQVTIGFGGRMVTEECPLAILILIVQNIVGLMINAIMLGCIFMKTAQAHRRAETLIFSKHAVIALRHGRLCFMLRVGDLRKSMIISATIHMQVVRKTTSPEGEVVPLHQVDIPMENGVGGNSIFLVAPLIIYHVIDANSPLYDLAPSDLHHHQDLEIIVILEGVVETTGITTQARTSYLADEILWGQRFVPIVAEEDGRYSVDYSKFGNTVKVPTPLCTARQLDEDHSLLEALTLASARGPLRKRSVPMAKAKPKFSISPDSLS
Chain of Kir6.2-GFP + SUR1 (Q09428 whole entry partner): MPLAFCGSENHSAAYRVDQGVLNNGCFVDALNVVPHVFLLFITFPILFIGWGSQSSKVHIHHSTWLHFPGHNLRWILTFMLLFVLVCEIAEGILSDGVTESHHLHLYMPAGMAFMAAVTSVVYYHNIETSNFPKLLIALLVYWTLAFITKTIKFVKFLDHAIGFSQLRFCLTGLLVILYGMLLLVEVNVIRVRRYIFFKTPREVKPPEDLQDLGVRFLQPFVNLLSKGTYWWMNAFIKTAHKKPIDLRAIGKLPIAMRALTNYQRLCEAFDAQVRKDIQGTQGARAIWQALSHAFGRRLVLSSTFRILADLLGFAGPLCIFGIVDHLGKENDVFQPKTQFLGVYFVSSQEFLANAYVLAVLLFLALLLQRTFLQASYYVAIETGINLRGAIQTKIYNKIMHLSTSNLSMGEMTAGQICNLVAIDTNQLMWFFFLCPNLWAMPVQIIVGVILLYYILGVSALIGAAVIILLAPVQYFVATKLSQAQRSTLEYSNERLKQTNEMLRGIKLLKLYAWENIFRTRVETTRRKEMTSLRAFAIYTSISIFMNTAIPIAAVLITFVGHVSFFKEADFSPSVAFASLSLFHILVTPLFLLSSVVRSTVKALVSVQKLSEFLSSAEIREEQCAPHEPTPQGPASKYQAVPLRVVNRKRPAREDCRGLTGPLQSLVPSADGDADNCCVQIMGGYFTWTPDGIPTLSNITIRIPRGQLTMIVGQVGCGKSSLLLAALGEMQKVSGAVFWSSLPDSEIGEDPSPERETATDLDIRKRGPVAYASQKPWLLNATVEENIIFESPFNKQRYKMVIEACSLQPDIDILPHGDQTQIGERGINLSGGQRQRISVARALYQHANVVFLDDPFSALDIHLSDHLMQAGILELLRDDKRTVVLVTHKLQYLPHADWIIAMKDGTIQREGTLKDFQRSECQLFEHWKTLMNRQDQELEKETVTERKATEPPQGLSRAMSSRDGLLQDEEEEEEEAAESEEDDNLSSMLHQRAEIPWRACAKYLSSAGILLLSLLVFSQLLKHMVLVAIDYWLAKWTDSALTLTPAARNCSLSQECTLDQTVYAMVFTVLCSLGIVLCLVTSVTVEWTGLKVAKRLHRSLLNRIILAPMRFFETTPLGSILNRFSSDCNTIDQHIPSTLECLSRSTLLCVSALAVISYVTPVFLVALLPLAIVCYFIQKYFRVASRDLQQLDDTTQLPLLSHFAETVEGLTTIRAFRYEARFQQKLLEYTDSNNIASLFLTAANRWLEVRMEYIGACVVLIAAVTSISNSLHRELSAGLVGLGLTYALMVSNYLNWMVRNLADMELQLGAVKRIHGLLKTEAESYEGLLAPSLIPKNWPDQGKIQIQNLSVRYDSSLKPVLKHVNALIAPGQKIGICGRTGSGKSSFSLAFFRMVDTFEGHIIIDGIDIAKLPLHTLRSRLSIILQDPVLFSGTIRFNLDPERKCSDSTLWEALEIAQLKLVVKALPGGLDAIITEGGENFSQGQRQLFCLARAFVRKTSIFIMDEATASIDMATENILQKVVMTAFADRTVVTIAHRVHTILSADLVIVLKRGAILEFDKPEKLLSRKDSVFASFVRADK

Structure (SMILES): Nc1ncnc2c1ncn2[C@@H]1O[C@H](COP(=O)(O)OP(=O)(O)OP(=O)(O)O)[C@H]2OC3(O[C@H]21)C([N+](=O)[O-])=CC(=[N+]([O-])[O-])C=C3[N+](=O)[O-] (stereo partly shown) [TNP-ATP, trinitrophenyl-ATP]
- KA (Full MWC model, PCF, inhibitory site on Kir6.2): 21000 M⁻¹
- Kd (Full MWC model, from KA, read-out: KD): 47.9 µM and 48 µM
- L (Full MWC model, linear value): 0.09
- D (factor by which nucleotide binding favours channel closure) [1]: 0.04
- L (unliganded open-closed equilibrium constant) [1]: −1.05 log10
- Popen (Full MWC model, unliganded, from L): 0.08
- C (binding cooperativity between Kir6.2 subunits) (Negative cooperativity model): 0.17
- D (factor by which nucleotide binding favours channel closure) (Negative cooperativity model): 0.15
- L (unliganded open-closed equilibrium constant) (Negative cooperativity model): −0.42 log10
- Kd (Negative cooperativity model, read-out: KA (intrinsic binding affinity to the closed state) (converted)): 15.1 µM
- D (factor by which nucleotide binding favours channel closure) [2]: 0.05
- L (unliganded open-closed equilibrium constant) [2]: −1.06 log10
- Kd (Single-site (single-binding) model, read-out: KA (intrinsic binding affinity to the closed state) (converted)): 46.8 µM
